Experimental data: paper PMC8695447, “Novel Small Molecules Capable of Blocking mtRAS-Signaling Pathway” (Frontiers in Oncology, 2021)

Key:
Format in all cases: cell-based
[1] = test system: phospho-AKT, -MEK, -ERK in Ba/F3-NRAS-G12D and Ba/F3-NRAS-G12V cells; assay: Western blot, phospho-AKT, -MEK, -ERK in Ba/F3 cells transformed with mtRAS; settings: 2 h; for inhibitory capabilities on phosphorylation level of MEK, ERK, and AKT at 1 µM relative to GNF-7: Ba/F3 mtRAS cells; for phospho-AKT, -MEK, -ERK levels at 10 µM: Ba/F3 cells transformed with mtRAS (NRAS-G12D and NRAS-G12V)
Description: Approximately 1 × 10^6 cells per well were seeded in a 6-well cell culture plate. After cell adhesion, each compounds were treated for 2 h with indicated concentration and conducted brief washing twice by ice-cold PBS. Cells were lysed by NP40 buffer (50 mM Tris–HCl pH 7.4, 1% NP40, 2 mM EDTA, 150 mM NaCl) in the presence of protease inhibitor cocktail (Roche, #11873580001) and phosphatase inhibitor cocktail (Roche, #04906837001). Each sample was loaded with same amount of total protein and separated by SDS-PAGE gel. After transferred to nitrocellulose membrane, blocking with 5% skim milk (in TBS/T) was followed. The membrane was incubated 4°C for overnight with uniformly diluted primary antibodies at 1:1,000 (v/v) in TBS/T. The following primary antibodies were used: anti-p-AKT (Cell Signaling, #9271), anti-p-ERK1/2 (Cell Signaling, #4370), anti-PARP (Cell Signaling, #9542), anti-GAPDH (Cell Signaling, #5174), anti-p-70S6K1 (Cell Signaling, #9204), anti-p-JNK(Cell Signaling, #9251), anti-p-p38 (Cell Signaling, #9216), and anti-p-MEK1/2 (Santa Cruz, sc-81503). Each membrane was incubated with HRP-conjugated goat anti-Rabbit secondary antibody (Gendepot, SA002-500) or HRP-conjugated goat anti-Mouse secondary antibody (Gendepot, SA001-500) for 1 h (1:10,000, v/v) in TBS/T at room temperature and followed ECL solution treatment. Chemiluminescence signals were detected by ImageQuant™ LAS 4000 (GE Healthcare).
Figure 1 The effects of (A) SIJ1795 and (B) SIJ1772 on MAPK and PI3K/AKT signaling pathways in Ba/F3 cells transformed with mtRAS (NRAS-G12D and NRAS-G12V). Cells were treated with 0.1, 1, and 10 μM of SIJ1795, SIJ1772, and GNF-7 for 2 h. Western blot analysis was conducted to evaluate the phospho-AKT, -MEK, -ERK levels. GAPDH was used as the loading control.

DU-145 (KRAS-G12V) = assay: Anti-proliferation assay on DU-145; settings: Homo sapiens, DU-145; 72 h treatment; average with SD (n = 3, duplicate)
Description: (§1) Ba/F3-parental, OCI-AML3, U397 cells were purchased from DSMZ. MDA-MB-231, HCT-116, AsPC-1, H358, HT-29, SW480, and DU-145 cells were obtained from KCLB. MDA-MB-468 cells were obtained from ATCC. All cells were maintained in RPMI with 10% FBS and antibiotics. Cells were grown in a humidified 5% CO2 incubator at 37°C. Ba/F3-parental cells were grown in the presence of 10 ng/ml IL-3. NRAS-G12D or NRAS-G12V transformed Ba/F3 cell lines (Ba/F3-NRAS-G12D, and Ba/F3-NRAS-G12V, respectively) were cultured without IL-3, which were established by the procedure described as previously ([30]).
(§2) Approximately 3.0 × 10^3 cells/well were seeded in a 96-well cell culture plate. After stabilization, 1/3 serially diluted compound in DMSO was treated to the cell. […] All GI50 values were obtained in duplicate with three independent assays and averages with standard deviation are presented.

[2] = test system: cancer cells harboring mtRAS; assay: Colony formation assay (2D clonogenic assay); settings: 0.1 μM, 14 days
Description: Colony formation assay was conducted for 2D clonogenic assay. Approximately 1 × 10^3 cells/well were seeded in 6-well plate. After cellular attachment, indicated concentrations of compounds were treated for 14 days at 37°C. Colonies were stained by crystal violet solution for 30 min. The total area of each well was observed without magnification, and the number of colonies of each well were accessed using ImageJ software (n = 3).
Figure 7 (A–F) Colony formation assay results evaluating the effects of SIJ1795 and SIJ1772 on clonogenic abilities of on cancer cells harboring mtRAS. Cells were incubated with indicated compounds (0.01 µM or 0.1 µM) for 14 days. After staining with crystal violet, colonies were photographed without magnification. (G–L) Number of colonies (% of control) upon treatment with indicated compounds at 0.1 µM concentration were determined by ImageJ (n = 3, respectively). Statistical significance was calculated by using a one-way ANOVA analysis (**p < 0.01, ***p < 0.001, ****p < 0.0001).

[3] = test system: Ba/F3-NRAS-G12D and Ba/F3-NRAS-G12V cells; assay: Flow cytometry apoptosis analysis (annexin V/PI), Ba/F3 mtRAS cells; settings: 1 μM, 24 h
Description: For apoptosis analysis, cells (1 × 10^6 cells per sample) were incubated with each compounds for 24 h. Cells were subjected to brief ice-cold PBS washing and subjected to staining with Alexafluor488-conjugated annexin V (Thermo Fisher, A13201), and propidium iodide (PI, Thermo Fisher, P3560). Thereafter, apoptotic cells were classified by FACS Accuri™ C6 Plus (BD Biosciences). Debris and unstained cells and were excluded by gating.
Figure 3 (A, B) The effects of SIJ1795 and SIJ1772 on apoptosis induction in Ba/F3 cells transformed with mtRAS (NRAS-G12D and NRAS-G12V). Cells were treated with 0.1 and 1 μM of SIJ1795, SIJ1772, and GNF-7 for 24 h Western blot analysis was conducted to evaluate the cleaved PARP and level. GAPDH was used as a loading control. (C) Apoptotic cell population (annexin V-positive) was determined by flow cytometry analysis (n = 3). Cells were treated with 1 μM of indicated compounds for 24 h. Statistical significance was calculated by a one-way ANOVA analysis (**p < 0.01, ***p < 0.001).

[4] = test system: Ba/F3 cells transformed with mtRAS (NRAS-G12D and NRAS-G12V) and cancer cells harboring mtRAS; assay: Flow cytometry cell cycle analysis (PI); settings: 1 μM, 24 h
Description: For cell cycle analysis, cells (1 × 10^6 cells per sample) were incubated with each compounds for 24 h. Cells were subjected to brief ice-cold PBS washing and fixed with 70% EtOH for 1 h at −20°C. Cells were stained with PI/RNase staining solution (Cell signaling, #4087) and incubated 30 min at room temperature in a dark condition. Stained cells were subjected to flow cytometry analysis. Debris and unstained cells and were excluded by gating.
Figure 5 The effects of SIJ1795 and SIJ1772 on cell cycle arrest against in (A, B) Ba/F3 cells transformed with mtRAS (NRAS-G12D and NRAS-G12V) and (C, D) cancer cells harboring mtRAS. Cells were treated with 1 µM of SIJ1795, SIJ1772, and GNF-7 for 24 h. Cells were stained by PI and analyzed the percentage of cell cycle phase by flow cytometry.

HCT-116 (KRAS-G13D) = assay: Anti-proliferation assay on HCT-116; settings: Homo sapiens, HCT-116; 72 h treatment; average with SD (n = 3, duplicate)
Description: as §1, §2

GI50 (DU-145 (KRAS-G12V)) [nM]	GI50 (HCT-116 (KRAS-G13D)) [nM]	Compound	inhibitory capabilities on phosphorylation level of MEK, ERK, and AKT at 1 µM relative to GNF-7 [1]	phospho-AKT, -MEK, -ERK levels at 10 µM [1]	colony formation [2]	apoptotic cells population (annexin V/PI) in Ba/F3-NRAS-G12D and Ba/F3-NRAS-G12V cells [3]	cell cycle arrest [4]
29 ± 3	38 ± 28	Cc1ccc(NC(=O)c2cccc(C(F)(F)F)c2)cc1N1Cc2cnc(Nc3cnn(C4CCN(S(C)(=O)=O)CC4)c3)nc2N(C)C1=O [SIJ1772, N-(4-Methyl-3-(1-methyl-7-((1-(1-(methylsulfonyl)piperidin-4-yl)-1H-pyrazol-4-yl)amino)-2-oxo-1,4-dihydropyrimido[4,5-d]pyrimidin-3(2H)-yl)phenyl)-3-(trifluoromethyl)benzamide]	slightly increased relative to that of GNF-7	completely inhibited	suppressed	increase of apoptotic cells	G0/G1 arrest was induced
77 ± 43	33 ± 6	CCN1CCN(c2cccc(Nc3ncc4c(n3)N(C)C(=O)N(c3cc(NC(=O)c5cccc(C(F)(F)F)c5)ccc3C)C4)c2)CC1 [SIJ1795, N-(3-(7-((3-(4-Ethylpiperazin-1-yl)phenyl)amino)-1-methyl-2-oxo-1,4-dihydropyrimido[4,5-d]pyrimidin-3(2H)-yl)-4-methylphenyl)-3-(trifluoromethyl)benzamide]	slightly increased relative to that of GNF-7	completely inhibited	suppressed	increase of apoptotic cells	G0/G1 arrest was induced
